Laboratory results reported in US5648349A, “PLA2 inhibitors” (Monsanto Company, priority 1995, dated 1997).
Read-outs that look alike come from different tables or passages of the source. Values belong to the molecule of their own block, whether it stands above or below them.

Experiments:
[1] = target: T1, porcine pancreatic PLA2 (Sus scrofa, UniProt P00592); experiment: Millimolar Calcium-Dependent PLA2 Assay (porcine pancreatic PLA2, [14C]-oleate labeled E. coli substrate); assay type: biochemical
T1 construct: Purified porcine pancreatic PLA2 was obtained from Sigma; purchased Sigma (St. Louis, Mo.); host or cells: porcine pancreas
Description: (§1) Specifically, one micromolar calcium-dependent mammalian PLA2 assay was used, i.e., sheep platelet PLA2, and two millimolar calcium-dependent mammalian PLA2 assays were used, i.e., human synovial fluid PLA2 and porcine pancreatic PLA2. The PLA2 enzymes represent different groups of PLA2 enzymes. Myocardial PLA2, platelet PLA2 and secreted PLA2 enzymes (human synovial fluid PLA2 and porcine pancreatic PLA2) have very different calcium requirements, which may be typical of their respective classes.
(§2) Millimolar Calcium-Dependent PLA2 Assays
Purified porcine pancreatic PLA2 was obtained from Sigma (St. Louis, Mo.). PLA2 activity was measured by using [14C]-oleate labeled autoclaved E. coli as described by Franson, Patriarca and Elsbach (referenced above). The assay was performed at 37° C. for 5 min. in a final volume of 100 μL Tris-HCl buffer (100 mM, pH 8.0) containing 1 mM EDTA, 10 mM CaCl2, and E. coli (containing […] phospholipid). The test compound or control vehicle was preincubated with PLA2 for 5 min. followed by adding E. coli to initiate the reaction. The reaction was terminated by adding 2 mL tetrahydrofuran. The reaction product [^14 C]-oleic acid, was isolated using a 1 mL Bond Elute--NH2 column and counted by liquid scintillation spectrometry.

[2] = system: sheep platelet PLA2; experiment: Micromolar Calcium-Dependent PLA2 Assay (sheep platelet cytosolic PLA2); assay type: biochemical; settings: pH 7.2, 1 μM CaCl2, 1 μM substrate, 10 min at 37° C.
Description: as §1
Micromolar Calcium-Dependent PLA2 Assay
Homogeneous sheep platelet cytosolic PLA2 was prepared as described by Loeb, L. A., and Gross, R. W., J. Biol. Chem., 261, 10467-10470 (1986). The purified calcium-dependent platelet PLA2 was preincubated in 70 mM Tris-Cl (pH 7.2) containing 1 μM CaCl2 and test compound for 5 min. at 25° C. Catalysis was initiated by injection of 1 μM radiolabeled substrate (1-O-(Z)-(1'-hexadecenyl)-2-[9,10^-3 H]-oleoyl-3-phosphorylcholine). After a 10 min. incubation period at 37° C., reaction products were extracted with n-butanol, separated by thin layer chromatography, and quantified by scintillation spectrometry. PLA2 activity was compared in the presence and absence of test compound and the IC50 was determined.
See Zupan, L. A., et al, "Calcium is sufficient but not necessary for activation of sheep platelet cytosolic phospholipase A2 ", FEBS Letters, Vol. 284, No. 1, 27-30 (1991).

[3] = system: purified calcium-independent canine myocardial PLA2; experiment: Calcium-Independent PLA2 Assay (purified canine myocardial cytosolic PLA2, release of radiolabeled oleic acid); assay type: biochemical; settings: pH 7.0, 6.4 mM EGTA, 1 μM substrate, 5 min at 37° C., read-out: IC50 Canine Heart PLA2
Experimental: This assay consists of determining the amount of radiolabeled fatty acid which is liberated from the radiolabeled phospholipid substrate by purified calcium-independent canine myocardial PLA2 in the presence of varying concentrations of the inhibitor. The concentration of inhibitor which decreases the activity of the enzyme to 50% of the activity observed in the absence of that inhibitor is determined. This concentration is defined as the IC50.
Calcium-Independent PLA2 Assay
Purified canine myocardial cytosolic PLA2 was isolated from an ATP-agarose eluate as described by Wolf, R. A., and Gross, R. W., J. Biol. Chem., 260, 7295-7303 (1985). The calcium-independent myocardial PLA2 was incubated with selected concentrations (10^-10 to 10^-4 M) of test compound in 168 mM Tris-Cl, 6.4 mM EGTA (a calcium chelator) (pH 7.0) for 5 min. at 25° C. Appropriate controls were performed in the absence of test compound. Catalysis was initiated by injection of 1 μM radiolabeled substrate (1-O-(Z)-(1'-hexadecenyl)-2-[9,10^-3 H]-oleoyl-3-phosphorylcholine). After a 5 min. incubation at 37° C., reaction products were extracted with n-butanol, separated by thin layer chromatography, and quantified by scintillation spectrometry. PLA2 activity was compared in the presence and absence of test compound and the IC50 was determined.

[4] = system: HL-60 cells; experiment: HL-60 Cell Assay for LTB4 and PGE2 Production (calcium ionophore A23187 induced); assay type: cell-based; settings: Homo sapiens; for IC50: A23187 5×10^-6 M
Experimental: An additional whole cell assay was also performed. In this assay, HL-60 cells are induced with the calcium ionophore A23187 in the presence of varying amounts of inhibitor, and the amounts of the prostaglandin E2 (PGE2) and leukotriene B4 (LTB4) which form are measured. Calcium ionophore A23187 activates a calcium-dependent PLA2 which leads to the enhanced production of the arachidonic acid metabolites PGE2 and LTB4. The concentrations of inhibitor which decrease the production of PGE2 and LTB4 by 50% relative to controls are expressed as IC50 values.
HL-60 Cell Assay for LTB4 and PGE2 Production
HL-60 cells grown exponentially in culture were induced to differentiate into granulocytes by a four day incubation with 0.8% (v/v) N,N-dimethylformamide. Prior to assay, differentiated HL-60 cells were washed once with Hanks' balanced salt solution containing 0.35 mg/mL sodium bicarbonate and 10 mM Hepes, pH 7.3 (HBSS) and resuspended in HBSS at a 3×10^6 cells/mL concentration. DMSO or test compounds solubilized in DMSO were added at 1:100 dilution to 1.0 mL HL-60 cell suspensions (3×10^6 cells) and preincubated at 37° C. for 10 min. in a shaking water bath. After an additional 5 min. incubation with 5×10^-6 M calcium ionophore, A23187 (Calbiochem, LaJolla, Calif.), the cells were centrifuged at 12,800×6 for 15 seconds and the supernatant (0.8 mL) removed and stored at -20° C. for LTB4 and PGE2 quantitation by radioimmunoassay (kits obtained from Amersham, United Kingdom and NEN Research Products, N. Billerica, Mass.).

[5] = target: T2, human synovial fluid PLA2 (Homo sapiens, UniProt P14555); experiment: Millimolar Calcium-Dependent PLA2 Assay (human synovial fluid PLA2, [14C]-oleate labeled E. coli substrate); assay type: biochemical; settings: pH 7.0, 5 mM CaCl2, 30 min at 37° C., ">>" = little or no inhibition at highest concentration used
T2 construct: Purified human synovial fluid PLA2; tissue R. C; Franson (Medical College of Virginia, Richmond, Va.); host or cells: human synovial fluid
T2 sequence (P14555 21-144): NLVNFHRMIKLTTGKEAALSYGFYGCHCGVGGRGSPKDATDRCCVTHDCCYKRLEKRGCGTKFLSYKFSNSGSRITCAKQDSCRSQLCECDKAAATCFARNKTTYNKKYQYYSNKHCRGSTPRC
Description: as §1, §2
Purified human synovial fluid PLA2 (purified by the procedure of Fawzy, A. A. and Franson, R. C. Biophys. J. 49, 533a [1986]) was obtained from R. C. Franson (Medical College of Virginia, Richmond, Va.). PLA2 activity was measured by using [^14 C]-oleate labeled autoclaved E. coli as substrate as described by Franson, R. C., Patriarca, P., and Elsbach, P. J., Lipid Res. 15, 380-388 (1974). The assay was performed at 37° C. for 30 min. in a final volume of 100 μL 50 mM Hepes buffer (pH 7.0) containing 150 mM NaCl, 5 mM CaCl2, and E. coli cells (corresponding to 10 nmol phospholipid). The test compound or control vehicle was preincubated with PLA2 for 5 min., followed by adding E. coli to initiate the reaction. The reaction was terminated by adding 2 mL tetrahydrofuran. The reaction product, [^14 C]-oleic acid, was isolated using a 1 mL Bond Elute--NH2 column and counted by liquid scintillation spectrometry.

[6] = system: rat neonatal myocytes; settings: cited from earlier work
[7] = pH 8.0, 10 mM CaCl2, 5 min at 37° C., ">>" = little or no inhibition at highest concentration used, read-out: IC50 Porcine Pancreatic PLA2
[8] = LTB4 production, ">>" = little or no inhibition at highest concentration used, read-out: IC50 HL-60 LTB4
[9] = PGE2 production, ">" inhibition but not enough for IC50, ">>" little or no inhibition at highest concentration, read-out: IC50 HL-60 PGE2
[10] = human synovial fluid, read-out: IC50 HSF PLA2
[11] = IC50 HSF PLA2, human synovial fluid

T1 sequence (P00592 23-146): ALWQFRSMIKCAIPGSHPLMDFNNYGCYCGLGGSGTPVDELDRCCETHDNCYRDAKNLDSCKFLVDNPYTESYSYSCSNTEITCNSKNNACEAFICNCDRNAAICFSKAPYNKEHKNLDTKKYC

Structure (SMILES): CCCCCCCCCCCC#Cc1cccc(C=C(P(=O)(OCC)OCC)P(=O)(OCC)OCC)c1 [Example 1, Tetraethyl [2-[3-(1-tridecynyl)phenyl]ethenylidene]bisphosphonate]
activation at 100 µM ([1]; 5 min, footnote a to the entry 100 (μM), + = activation): 40%
IC50 [1, 7]: 100000 nM
IC50 [2]: 180 nM
IC50 [3]: 560 nM
IC50 [4, 8]: 1200 nM
IC50 [4, 9]: 3000 nM
IC50 [5, 10]: > 100000 nM

Structure (SMILES): CCCCCCCCCCCC#Cc1cccc(C=C(P(=O)(O)O)P(=O)(O)O)c1 [Example 2, [2-[3-(1-Tridecynyl)phenyl]ethenylidene]bisphosphonic acid]
IC50 [1]: > 100000 nM
IC50 [2]: 11000 nM
IC50 [3]: 450 nM
IC50 [4, 8]: > 10000 nM
IC50 [4, 9]: > 10000 nM
IC50 [5, 10]: 31000 nM

Structure (SMILES): CCCCCCCCCCCC#Cc1cccc(C=C(P(=O)(O)O)P(=O)(O)O)c1 [Example 3, Disodium [2-[3-(1-tridecynyl)phenyl]ethenylidene]bisphosphonate]
IC50 [2]: 3200 nM
IC50 [3]: 360 nM
IC50 [5, 11]: 38000 nM

Structure (SMILES): CCCCCCCCCCCC#Cc1ccccc1/C=C(\C(=O)OCC)P(=O)(OCC)OCC [Example 5, Ethyl 2-(diethoxyphosphinyl)-3-[2-(1-tridecynyl)phenyl]-2-E-propenoate]
IC50 [1, 7]: > 100000 nM
IC50 [2]: 2400 nM
IC50 [3]: 340 nM
IC50 [4, 8]: 1300 nM
IC50 [4, 9]: 2300 nM
IC50 [5, 10]: > 100000 nM

IC50 [1, 7]: 2500 nM
IC50 [4, 8]: 4400 nM
IC50 [4, 9]: 3500 nM
IC50 [5, 10]: 16000 nM
Structure (SMILES): CCCCCCCCCCCC#Cc1ccccc1/C=C(\C(=O)OCC)P(=O)(O)O [Example 6, Ethyl E-2-phosphono-3-[2-(1-tridecynyl)phenyl]propenoate]

Structure (SMILES): CCCCCCCCCCCC#Cc1cccc(P(=O)(OCC)OCC)c1 [Example 8, Diethyl [3-(1-tridecynyl)phenyl]phosphonate]
IC50 [2]: 220 nM
IC50 [3]: 360 nM

Structure (SMILES): CCCCCCCCCCCC#Cc1ccccc1C=C(P(=O)(OCC)OCC)P(=O)(OCC)OCC [Example 9, Tetraethyl [2-[2-(1-tridecynyl)phenyl]ethenylidene]bisphosphonate]
IC50 [2]: 160 nM
IC50 [3]: 1500 nM
IC50 [4, 8]: 2600 nM
IC50 [4, 9]: 4400 nM
IC50 [5, 10]: > 100000 nM

Structure (SMILES): CCCCCCCCCCCC#Cc1ccccc1C=C(P(=O)(O)O)P(=O)(O)O [Example 10, [2-[2-(1-Tridecynyl)phenyl]ethenylldene]bisphosphonic acid]
IC50 [1]: > 100000 nM
IC50 [2]: 50000 nM
IC50 [3]: 710 nM
IC50 [4, 8]: 10000 nM
IC50 [4, 9]: > 10000 nM
activation at 10 µM ([4]; footnote b to the entry 10 (μM), + = activation, LTB4): 21%
IC50 [5, 10]: 50000 nM

Structure (SMILES): CCCCCCCCCCCC#Cc1ccccc1C=C(P(=O)(O)O)P(=O)(O)O [Example 11, Disodium [2-[2-(1-tridecynyl)phenyl]ethenylidene]bisphosphonate]
IC50 [2]: 2800 nM
IC50 [3]: 1900 nM
IC50 [5, 11]: 25000 nM

Structure (SMILES): CCCCCCCCCCCC#Cc1ccccc1/C=C/P(=O)(OCC)OCC [Example 13, Diethyl E-2-[2-(1-tridecynyl)phenyl]ethenylphosphonate]
IC50 [2]: 1100 nM
IC50 [3]: 3000 nM

IC50 [2]: 2900 nM
IC50 [3]: 4500 nM
Structure (SMILES): CCCCCCCCCCCC#Cc1ccccc1/C=C/P(=O)(O)O [Example 14, 2-[2-(1-Tridecynyl)phenyl]ethenylphosphonic acid]

Structure (SMILES): CCCCCCCCC(=O)NCC#Cc1ccccc1C=C(P(=O)(OCC)OCC)P(=O)(OCC)OCC [Example 18, Tetraethyl [2-[2-[3-[(1-oxononyl)amino]-1-propynyl]phenyl]ethenylidene]bisphosphonate]
IC50 [2]: ~100000 nM
IC50 [3]: > 100000 nM

Structure (SMILES): COC1=CCC2=C(CCC3C2CC[C@@]2(C)C3CC[C@@H]2N(C)CCCN(C)C)C1 (stereo partly drawn) [U26,384]
release of arachidonic acid, phospholipid degradation, sarcolemmal membrane defects and release of creatine kinase induced by iodoacetate ([6]; rat neonatal myocytes treated with iodoacetate, Sen et al (cited)): prevented the release of arachidonic acid, phospholipid degradation, sarcolemmal membrane defects and the release of creatine kinase

Structure (SMILES): O=C(O)CI [iodoacetate]
levels of ATP, release of arachidonic acid and morphological alterations of the myocytes ([6]; rat neonatal myocytes, Chien et al 1985 (cited)): lowers the levels of ATP which results in the release of arachidonic acid and morphological alterations of the myocytes
